Measurements: the METLIN SMRT retention time set (Domingo-Almenara et al. 2019)

Assay: gradient 5% acetonitrile 3 min, to 50% in 2 min, to 85% in 15 min, held 3 min, 100 µL/min
Details: column: Zorbax Extend-C18 2.1 x 50 mm; eluents: water / acetonitrile, 0.1% formic acid
Method in brief: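 Each retention time is based on an adduct peak selected computationally and verified by manual inspection. Measurements used HPLC–quadrupole time-of-flight mass spectrometry in positive and negative ionization mode on mixtures of ~100 pure standards. Chromatography ran on a Zorbax Extend-C18 column (2.1 × 50 mm, 1.8 μm) at 100 μL/min with water and acetonitrile, each containing 0.1% formic acid, and dead and dwell volumes of 40 μL and 900 μL.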

Point of comparison: CC(C)(C)NC(=O)C1CCN(S(=O)(=O)c2cc(-c3noc(C4CCC4)n3)cs2)CC1, RP-LC retention time 1030 s. Against it:
- Cc1nc2cc(N3CCCC(C(=O)N4CCCCCC4)C3)cnc2nc1C (centres undefined) — lower, 653 s
- O=C(C1CC1)N1CCCC(OCc2nc(-c3cnccn3)no2)C1 (centres undefined) — lower, 651 s
- Cc1ccc2c(c1)N(S(C)(=O)=O)CCC(C(=O)Nc1ccc(Cl)cc1)O2 (centres undefined) — lower, 1020 s
- O=C(Nc1ccc(Br)cc1)N1CCCC1c1nc(-c2ccc(F)cc2F)no1 (centres undefined) — higher, 1050 s
- COc1cc(-c2oc3cc(O)cc(O)c3c(=O)c2O[C@@H]2O[C@H](CO)[C@@H](O)[C@H](O)[C@H]2O)ccc1O — lower, 684 s
- CCn1cc(S(=O)(=O)N2CC(Oc3cccc(-c4nc(C)no4)c3)C2)cn1 — lower, 839 s
- Cn1cnc(S(=O)(=O)N2CCC(C(=O)Nc3ccc4c(c3)OCCO4)CC2)c1 — lower, 663 s
- CC1=NS(=O)(=O)N(C)C=C1C(=O)OCc1nc(-c2ccc(F)cc2)no1 — lower, 952 s
- CCS(=O)(=O)c1ccc(-c2ccc(NC(=O)Cc3ccc(F)cc3)cc2)nn1 — lower, 764 s
- CCCN(CC1CC1)C(=O)c1nn(CCOC)c2c1CNCC2 — lower, 567 s
- Cc1cc(N2CCN(C(=O)Cc3ccccc3Br)CC2)nc2nnc(C)n12 — lower, 623 s
- Cc1cc(Cl)ccc1S(=O)(=O)N1CCN(c2nc3ccncc3n(C)c2=O)CC1 — lower, 615 s
- O=C(c1cccc(F)c1)N1CCN(c2ccc(=O)n(-c3ccc(Cl)cc3)n2)CC1 — lower, 871 s
- CCOc1ccccc1C(=O)Nc1ccc2c(c1)Sc1ncccc1C(=O)N2CC — lower, 822 s
- Cc1cccc(N2CCN(c3cc(C(=O)O)c4cc(NS(C)(=O)=O)ccc4n3)CC2)c1C — lower, 715 s
- O=C(CN1CCN(Cc2ccc(F)cc2)C1=O)NC1CC1 — lower, 649 s
- CSc1ccc(CNC(=O)c2cn3ccc(C)cc3n2)cc1 — lower, 699 s
- CC1Oc2ccc(S(=O)(=O)N3CCC(C(=O)NCCc4ccccc4)CC3)cc2NC1=O (centres undefined) — lower, 792 s
- CC(C)NC(=O)c1ccc(-c2nc3cc(NS(=O)(=O)Cc4cccc(F)c4)ccc3n2C)cc1 — lower, 687 s
- CC(C)N1C(=O)C2(CCCC2)C1C(=O)NCC1CCCCC1 (centres undefined) — lower, 775 s
- CC(C)n1c(=O)c(NCCCc2ccccc2)nc2ccncc21 — lower, 707 s
- O=C(c1ccc(-c2ccsc2)nc1)N1CCCCCC1 — lower, 841 s
- COC(=O)c1ccc2c(=O)n(-c3cccc(C)c3)c(N3CCCCC3)nc2c1 — higher, 1240 s
- COc1ccc(-c2noc(Cn3ccnc3)n2)cc1 — lower, 601 s
- O=C(NCc1csc(C2CCCN(C(=O)c3ccc(F)cc3Cl)C2)n1)C1CC1 (centres undefined) — lower, 756 s
- CCC1Oc2ccc(S(=O)(=O)N3CCC(C(=O)Nc4ccc5c(c4)OCO5)CC3)cc2NC1=O (centres undefined) — lower, 809 s
- CC(NC(=O)c1ccc2ncnc(N3CCCCC3)c2c1)c1ccc(F)cc1 (centres undefined) — lower, 687 s
- Cc1cc(C)n2nc(SCC(=O)Nc3ccc(F)cc3)nc2n1 — lower, 724 s
- Cc1ccc(-c2cc3c(=O)n(Cc4nc(-c5ccc(F)cc5)no4)ccn3n2)cc1 — higher, 1330 s
- Cc1ccc(-c2nnc(Cc3nc(-c4ccc(OC(C)C)cc4)no3)o2)cc1C — higher, 1240 s
- CCN(C(=O)C1CCCN(S(=O)(=O)c2cc(-c3noc(C)n3)cs2)C1)c1ccccc1 (centres undefined) — lower, 983 s
- CCn1cc(-c2nc(C)c(C(=O)NCc3cccc(C)c3)s2)c2cccnc21 — lower, 989 s
- O=C(CCc1ccccc1)N1CCN(c2nc(CN3CCOCC3)cs2)CC1 — lower, 624 s
- O=C(c1cscn1)N1CCc2nn(CC3CC3)c(=O)n2CC1 — lower, 610 s
- COc1cc(Nc2c(C(=O)N3CCCC(C)C3)cnc3nc(C)ccc23)cc(OC)c1 (centres undefined) — lower, 657 s
- COc1cccc(-c2noc(-c3cc(N4CCN(c5ccccn5)CC4)nc4ccccc34)n2)c1OC — lower, 841 s
- COCCn1ncc(N2CCC(C(=O)Nc3ccc(F)cc3F)C2)cc1=O (centres undefined) — lower, 666 s
- Cc1ccc(CN2CC(c3ncc(C)n3Cc3ccccc3)C2)s1 — lower, 587 s
- Cc1cc(NC(=O)CSc2nnc(Cc3ccccc3)o2)no1 — lower, 716 s
- Cc1[nH]c(C(=O)N2CCCC(C(=O)NC(C)C)C2)c(C)c1C(=O)OC(C)C (centres undefined) — lower, 770 s
- CCc1sc(NC(=O)CCc2ccccc2)nc1-c1ccccc1 — higher, 1150 s
- O=S(=O)(c1ccccc1)N1CCOc2ccccc21 — lower, 974 s
- Cc1cc(C)cc(NC(=O)c2cccn2Cc2noc(C3CC3)n2)c1 — lower, 994 s
- CCN(CC)S(=O)(=O)c1ccc2c(c1)N(CC(=O)NCc1ccc(C)cc1)C(=O)C1CCCCN21 (centres undefined) — the same, 1030 s
- O=C(CSc1nnc(NC(=O)Cc2cccc3ccccc23)s1)NCC1CCCO1 (centres undefined) — lower, 715 s
- COc1ccc(N2CCN(C(c3cccs3)C(C)NC(=O)C(=O)N3CCCC3)CC2)cc1 (centres undefined) — lower, 670 s
- Cc1nc(-c2cc(S(=O)(=O)Nc3ccc(Br)cc3C)c(C)s2)cs1 — higher, 1100 s
- O=C(c1nc(-c2ccnc(N3CCCCC3)c2)no1)N1CCCC1 — lower, 673 s
- COc1cccc2cc(C(=O)NC3C=CS(=O)(=O)C3)oc12 (centres undefined) — lower, 652 s
- CC(C)c1ccc(C(O)Cn2ccn3nc(-c4ccc(F)cc4)cc3c2=O)cc1 (centres undefined) — higher, 1110 s
- COc1ccc(N2CC(c3noc(-c4ccc(Cl)cc4)n3)CC2=O)cc1 (centres undefined) — lower, 990 s
- CC1=C(c2ccc(F)cc2)S(=O)(=O)N=C1N1CCCN(C(=O)c2ccoc2)CC1 — lower, 752 s
- CCn1nc(CNC(=O)c2cccs2)c2ccccc21 — lower, 798 s
- CCOc1ccc(C(=O)N2CCCC(c3nnc(-c4ccccc4)o3)C2)cc1 (centres undefined) — lower, 892 s
- CCOC(=O)C1=C(CN2CCC(c3ccccc3)C2)NC(=O)NC1c1cccc(OC)c1OC (centres undefined) — lower, 687 s
- Cc1ccc(-c2ccc(-n3nc(C)c(S(=O)(=O)N4CCCCC4)c3C)nn2)cc1 — higher, 1190 s
- CCN(CC)S(=O)(=O)c1ccc2c(c1)N(CC(=O)NCCOC)C(=O)C1CCCCN21 (centres undefined) — lower, 788 s
- CCCCNC(=O)C1(c2ccc(NC(=O)C(C)C)cc2)CCCCC1 — lower, 935 s
- COc1ccc(NC(=O)Cn2cc(C(=O)N3CCCC3)c(=O)c3ccc(C)nc32)cc1 — lower, 667 s
- C=CCn1c(C)c(CC(=O)NCCOC)c(=O)n2nc(-c3ccc(C)cc3)nc12 — lower, 732 s
- CCc1ccc(NC(=O)Nc2ccc3nnc(C)n3c2)cc1 — lower, 712 s
- C[C@@H]1CN(C(=O)c2ccco2)C[C@H]1c1nc(-c2ccccc2)no1 — lower, 936 s
- COc1ccc(Cl)cc1N1C=C(C#N)S(=O)(=O)c2ccccc21 — lower, 918 s
- COC(=O)CCSCC(=O)Nc1nnc(C)s1 — lower, 602 s
- Cc1ccnc(N2CCCC(C(=O)NCC3CCN(Cc4cccc(F)c4)CC3)C2)n1 (centres undefined) — lower, 579 s
- Cc1ccc(-c2noc(Cc3nc(-c4ccc(Cl)cc4)cs3)n2)cc1 — higher, 1040 s
- CCOc1ccc(N2C=C(C(=O)N3CCCC3)S(=O)(=O)c3ccccc32)cc1 — lower, 828 s
- CCCNC(=O)Cn1c(CNC(C)=O)nc2ccccc21 — lower, 575 s
- Cc1ccc(-c2nnc(-c3ccccc3)o2)cc1S(=O)(=O)N1CCCCCC1 — higher, 1200 s
- COc1ccc2c(c1)C1(CCN(C(=O)Nc3cccc(C)c3)C1)C(=O)N2C (centres undefined) — lower, 809 s
- CCc1nn2c(CNS(=O)(=O)c3cccc(F)c3)c(-c3ccccc3)nc2s1 — lower, 935 s
- CCS(=O)(=O)N1CC(=O)N(c2ccc(Cl)cc2C)C(C)(C(=O)NCc2ccc(F)cc2)C1 (centres undefined) — lower, 882 s
- O=C(NCC(=O)N1CCc2ccccc21)Nc1cccc(Br)c1 — lower, 894 s
- O=C(Nc1ccc(Cl)cc1F)C1CCCN(C(=O)Cc2cccc3ccccc23)C1 (centres undefined) — higher, 1050 s
- O=C(Nc1nc2ccc([N+](=O)[O-])cc2s1)c1ccc(S(=O)(=O)N2CCCCC2)cc1 — lower, 1020 s
- Cc1ccc(-c2ccc(N3CCCC(C(=O)NCc4ccc5c(c4)OCO5)C3)nn2)cc1C (centres undefined) — lower, 763 s
- CC(=O)c1cccc(C(=O)NC2(c3nc(C)no3)CCCCC2)c1 — lower, 798 s
- CC(C)OCCCNC(=O)CN1c2ccc(F)cc2-c2ccccc2S1(=O)=O — lower, 890 s
- CC(C)(C)NC(=O)CSc1nc(-c2cccs2)cc(C(F)(F)F)c1C#N — lower, 991 s
- Cc1c(C(=O)NCC2CC2)cnn1-c1ccc(-c2nc(C(C)(C)C)no2)cn1 — lower, 1020 s
- CC(C)c1nc(CNC(=O)c2ccc(Cl)cc2)no1 — lower, 785 s
- O=C(O)C1CCN(c2nc3ccc(-c4cccnc4)nc3s2)CC1 — lower, 610 s
- Cc1ccc(-c2ncc(NC(=O)c3ccc(Br)o3)cn2)cc1 — the same, 1030 s
- Cc1ccc(N2CCN(S(=O)(=O)c3cc(-c4cc(C)no4)cs3)CC2)c(C)c1 — higher, 1240 s
- c1ccc(COCC2CCN(Cc3ccccc3)CC2)cc1 — lower, 588 s
- CC(=O)N1c2ccc(S(=O)(=O)N3CCCCC3)cc2CC1C(=O)NCCC(C)C (centres undefined) — lower, 822 s
- COC(=O)c1cn(CC(=O)N2CCc3ccccc32)c2ccccc12 — lower, 974 s
- COc1ccc(Oc2cc3c(cc2NS(=O)(=O)c2ccc(OC)c(OC)c2)n(C)c(=O)n3C)cc1 — lower, 821 s
